In PubChem BioAssay (NCI):
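Here, GI50 denotes the concentration required for 50% inhibition of growth. TGI is the concentration that stops growth completely.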

Columns and labels:
Assay in all cases: NCI anticancer screen, dose series, 384-well format
SNB-75 CNS = system: SNB-75 CNS
UO-31 renal = system: UO-31 renal
M14 melanoma = system: M14 melanoma
SF-295 CNS = system: SF-295 CNS
NCI-H460 NSCLC = system: NCI-H460 NSCLC
SF-268 CNS = system: SF-268 CNS
MCF7 breast = system: MCF7 breast
PC-3 prostate = system: PC-3 prostate
DU-145 prostate = system: DU-145 prostate
SK-MEL-28 melanoma = system: SK-MEL-28 melanoma
NCI-H23 lung = system: NCI-H23 lung
BT-549 breast = system: BT-549 breast
A498 renal = system: A498 renal
HL-60(TB) leukemia = system: HL-60(TB) leukemia
ACHN renal = system: ACHN renal
K-562 leukemia = system: K-562 leukemia
HCT-116 colon = system: HCT-116 colon
CCRF-CEM leukemia = system: CCRF-CEM leukemia
786-0 renal = system: 786-0 renal
IGROV1 ovarian = system: IGROV1 ovarian
SN12C renal = system: SN12C renal
SK-MEL-5 melanoma = system: SK-MEL-5 melanoma
HT29 colon = system: HT29 colon
UACC-257 melanoma = system: UACC-257 melanoma
OVCAR-5 ovarian = system: OVCAR-5 ovarian
CAKI-1 renal = system: CAKI-1 renal
SW-620 colon = system: SW-620 colon
MDA-MB-435 melanoma = system: MDA-MB-435 melanoma
MALME-3M melanoma = system: MALME-3M melanoma
A549 NSCLC = system: A549 NSCLC
RXF 393 renal = system: RXF 393 renal
HCT-15 colon = system: HCT-15 colon
NCI/ADR-RES ovarian = system: NCI/ADR-RES ovarian
T-47D breast = system: T-47D breast
SK-OV-3 ovarian = system: SK-OV-3 ovarian
NCI-H322M lung = system: NCI-H322M lung
HOP-92 NSCLC = system: HOP-92 NSCLC
OVCAR-4 ovarian = system: OVCAR-4 ovarian
TK-10 renal = system: TK-10 renal
NCI-H522 lung = system: NCI-H522 lung
OVCAR-8 ovarian = system: OVCAR-8 ovarian
LOX IMVI melanoma = system: LOX IMVI melanoma
OVCAR-3 ovarian = system: OVCAR-3 ovarian
HCC-2998 colon = system: HCC-2998 colon
SK-MEL-2 melanoma = system: SK-MEL-2 melanoma
HOP-62 NSCLC = system: HOP-62 NSCLC
MDA-MB-468 breast = system: MDA-MB-468 breast

`O=C(c1ccccc1O)c1[nH]c(Cl)c(Cl)c1-n1c(C(=O)c2ccccc2O)cc(Cl)c1Cl` was tested, and the GI50 (SNB-75 CNS) was 487 nM, the TGI (SNB-75 CNS) was 2440 nM and the GI50 (UO-31 renal) was 493 nM. For the same compound, the TGI (UO-31 renal) was 1820 nM, the GI50 (M14 melanoma) was 682 nM and the TGI (M14 melanoma) was 2380 nM. It also gave a GI50 (SF-295 CNS) of 448 nM, a TGI (SF-295 CNS) of 1300 nM and a GI50 (NCI-H460 NSCLC) of 288 nM. For the same compound, the TGI (NCI-H460 NSCLC) was 938 nM, the GI50 (SF-268 CNS) was 116 nM and the TGI (SF-268 CNS) was 871 nM. For the same compound, the GI50 (MCF7 breast) was 263 nM, the TGI (MCF7 breast) was 1230 nM and the GI50 (PC-3 prostate) was 292 nM. The TGI (PC-3 prostate) was 978 nM, the GI50 (DU-145 prostate) was 681 nM and the TGI (DU-145 prostate) was 8400 nM. For the same compound, the GI50 (SK-MEL-28 melanoma) was 367 nM, the TGI (SK-MEL-28 melanoma) was 1430 nM and the GI50 (NCI-H23 lung) was 220 nM. For the same compound, the TGI (NCI-H23 lung) was 610 nM, the GI50 (BT-549 breast) was 631 nM and the TGI (BT-549 breast) was 1620 nM. For the same compound, the GI50 (A498 renal) was 399 nM, the TGI (A498 renal) was 1760 nM and the GI50 (HL-60(TB) leukemia) was 257 nM. For the same compound, the TGI (HL-60(TB) leukemia) was 572 nM, the GI50 (ACHN renal) was 649 nM and the TGI (ACHN renal) was 2780 nM. For the same compound, the GI50 (K-562 leukemia) was 238 nM, the TGI (K-562 leukemia) was 3070 nM and the GI50 (HCT-116 colon) was 248 nM. The TGI (HCT-116 colon) was 930 nM, the GI50 (CCRF-CEM leukemia) was 240 nM and the TGI (CCRF-CEM leukemia) was 705 nM. It also gave a GI50 ([…]-0 renal) of 619 nM, a TGI (786-0 renal) of 1920 nM and a GI50 (IGROV1 ovarian) of 521 nM. The TGI (IGROV1 ovarian) was 8560 nM, the GI50 (SN12C renal) was 209 nM and the TGI (SN12C renal) was 746 nM. For the same compound, the GI50 (SK-MEL-5 melanoma) was 417 nM, the TGI (SK-MEL-5 melanoma) was 913 nM and the GI50 (HT29 colon) was 518 nM. It also gave a TGI (HT29 colon) of 4330 nM, a GI50 (UACC-257 melanoma) of 461 nM and a TGI (UACC-257 melanoma) of 1650 nM. It also gave a GI50 (OVCAR-5 ovarian) of 1440 nM, a TGI (OVCAR-5 ovarian) of 4710 nM and a GI50 (CAKI-1 renal) of 411 nM. For the same compound, the TGI (CAKI-1 renal) was 2190 nM, the GI50 (SW-620 colon) was 367 nM and the TGI (SW-620 colon) was 1540 nM. It also gave a GI50 (MDA-MB-435 melanoma) of 801 nM, a TGI (MDA-MB-435 melanoma) of 3050 nM and a GI50 (MALME-3M melanoma) of 670 nM. For the same compound, the TGI (MALME-3M melanoma) was 2170 nM, the GI50 (A549 NSCLC) was 654 nM and the TGI (A549 NSCLC) was 2480 nM. It also gave a GI50 (RXF 393 renal) of 600 nM, a TGI (RXF 393 renal) of 2120 nM and a GI50 (HCT-15 colon) of 277 nM. For the same compound, the TGI (HCT-15 colon) was 1040 nM, the GI50 (NCI/ADR-RES ovarian) was 384 nM and the TGI (NCI/ADR-RES ovarian) was 1270 nM. It also gave a GI50 (T-47D breast) of 218 nM, a TGI (T-47D breast) of 883 nM and a GI50 (SK-OV-3 ovarian) of 641 nM. It also gave a TGI (SK-OV-3 ovarian) of 2210 nM, a GI50 (NCI-H322M lung) of 302 nM and a TGI (NCI-H322M lung) of 1020 nM. It also gave a GI50 (HOP-92 NSCLC) of 458 nM, a TGI (HOP-92 NSCLC) of 1160 nM and a GI50 (OVCAR-4 ovarian) of 936 nM. The TGI (OVCAR-4 ovarian) was 4790 nM, the GI50 (TK-10 renal) was 386 nM and the TGI (TK-10 renal) was 4500 nM. For the same compound, the GI50 (NCI-H522 lung) was 174 nM, the TGI (NCI-H522 lung) was 536 nM and the GI50 (OVCAR-8 ovarian) was 276 nM. It also gave a TGI (OVCAR-8 ovarian) of 959 nM, a GI50 (LOX IMVI melanoma) of 833 nM and a TGI (LOX IMVI melanoma) of 2330 nM. It also gave a GI50 (OVCAR-3 ovarian) of 353 nM, a TGI (OVCAR-3 ovarian) of 1500 nM and a GI50 (HCC-2998 colon) of 537 nM. It also gave a TGI (HCC-2998 colon) of 1950 nM, a GI50 (SK-MEL-2 melanoma) of 333 nM and a TGI (SK-MEL-2 melanoma) of 922 nM. It also gave a GI50 (HOP-62 NSCLC) of 552 nM, a TGI (HOP-62 NSCLC) of 1590 nM and a GI50 (MDA-MB-468 breast) of 13 nM. For the same compound, the TGI (MDA-MB-468 breast) was 267 nM.
